Data taken from US20040122076A1, “Sulphonamides for the treatment of central nervous system diseases” (priority 2000, published 2004).
pKi: −log10 of the molar value.

Target: T1, human recombinant 5-HT6 receptors (Homo sapiens, UniProt P50406)
T1 construct: purchased Receptor Biology, Inc., Beltsville Md; 20705, USA RB-HS6; host or cells: HEK293 cells (membranes)
Experiment: Binding to human recombinant 5-HT6 receptors ([3H]-LSD displacement, HEK293 membranes)
Conditions: [3H]-LSD 1 nM, membranes of HEK293 cells, 1 hour at 37° C.; Ki=IC50/(1+L/KD)
Protocol: 1. Binding to Human Recombinant 5-HT6 Receptors
The binding of the compounds according to the invention to human recombinant 5-HT6 receptors can be determined as follows. Membranes of HEK293 cells which express human recombinant 5-HT6 receptors (RB-HS6, Receptor Biology, Inc., Beltsville Md. 20705, USA) were suspended in the ratio 1:40 in ice-cold sample buffer consisting of 50 mM tris HCl, 5 mM MgCl2, 0.5 mM EDTA; 0.1% ascorbic acid and 10 μM pargyline (pH 7.4) and homogenized (Polytron). 100 μl of membrane suspension, 50 μl of [^3H]-LSD (specific activity 75 Ci/mmol, final concentration […]) and 50 μl of test substance solution (8 different concentrations, 10^−5 to 10^−9 M) were incubated for 1 hour at 37° C. and the [^3H]-LSD bound to the receptor was then separated from the free [^3H]-LSD by filtration. The radioactivity retained by the filter was determined by scintillation spectroscopy. All tests were carried out in triplicate determinations. The IC50 values were calculated using the program GraphPadPrism (Hill equation, special: one-site competition). The inhibition constant of the test substance Ki was determined from the IC50 value of the compounds (concentration of the test substance at which 50% of the ligand bound to the receptor is displaced), the dissociation constant KD and the concentration L of [^3H]-LSD (Ki=IC50/(1+L/KD)).

T1 sequence (P50406 whole entry): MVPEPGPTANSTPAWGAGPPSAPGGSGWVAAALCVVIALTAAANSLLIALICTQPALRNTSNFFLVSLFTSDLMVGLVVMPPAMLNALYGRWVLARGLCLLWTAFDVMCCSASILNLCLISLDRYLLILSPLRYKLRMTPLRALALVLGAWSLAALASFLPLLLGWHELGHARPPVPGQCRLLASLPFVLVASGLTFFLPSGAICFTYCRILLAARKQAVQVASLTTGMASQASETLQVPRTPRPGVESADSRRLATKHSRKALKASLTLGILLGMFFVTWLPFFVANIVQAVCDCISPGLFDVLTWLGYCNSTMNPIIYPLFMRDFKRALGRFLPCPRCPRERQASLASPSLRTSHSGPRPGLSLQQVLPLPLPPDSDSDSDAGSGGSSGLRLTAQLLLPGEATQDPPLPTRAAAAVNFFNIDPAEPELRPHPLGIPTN

- pKi: 7.92
SMILES: CCn1ccc2ccc(S(=O)(=O)Nc3cccc(NC(=O)C(C)(C)C)c3)cc21 [Example 44]
